# Experiments:
# [1] = biological target: CDK6 (Homo sapiens (Human), UniProt Q00534); assay: CDK6 protein kinase activity, Caliper mobility shift assay; format: biochemical; conditions: GST-CDK6(1-326 end), substrate Peptide FAM-P8, 28° C. for 3 h
# Procedure: (§1) Activity Assay: The CDK6 protein kinase activity was measured using the Caliper mobility shift assay (see J. Biomol. Screen, 2009, PP31). The test compound was dissolved in DMSO and diluted with a kinase buffer solution (20 mM HEPES-pH 7.5, 0.01% Triton X-100, 10 mM MgCl2, 2 mM DTT) and 5 μL of compound at 5-fold final concentration of reaction dissolved in 10% DMSO was added in a 384-well plate. The compound-free control well was 5 μL of 10% DMSO, and the no-activity control well was 5 μL of kinase buffer. 10 μL of a 2.5-fold diluted CDK6 enzyme solution (GST-CDK6(1-326 end)) was added and incubated at room temperature for 10 min, and then 10 μL of the 2.5-fold diluted substrate solution Peptide FAM-P8 was added. The reaction was stopped by adding 25 μL of stop solution after incubation at 28° C. for 3 h, and the conversion rate data was read on a Caliper EZ Reader II (Caliper Life Sciences) and the conversion rate was converted to inhibition rate data according to above method. Among them, the inhibition rate %=(max−conversion)/(max−min)×100%.
# [2] = biological target: CDK4 (Homo sapiens (Human), UniProt P11802); assay: CDK4 protein kinase activity, Caliper mobility shift assay; format: biochemical; conditions: GST-CDK4(1-303 end), substrate Peptide FAM-P8, 28° C. for 3 h
# Procedure: as §1, with “activity assay:” for “Activity Assay:”, “CDK4” for “CDK6”, “(GST-CDK4(1-303” for “(GST-CDK6(1-326”
# Chain of CDK6 (Q00534 whole entry): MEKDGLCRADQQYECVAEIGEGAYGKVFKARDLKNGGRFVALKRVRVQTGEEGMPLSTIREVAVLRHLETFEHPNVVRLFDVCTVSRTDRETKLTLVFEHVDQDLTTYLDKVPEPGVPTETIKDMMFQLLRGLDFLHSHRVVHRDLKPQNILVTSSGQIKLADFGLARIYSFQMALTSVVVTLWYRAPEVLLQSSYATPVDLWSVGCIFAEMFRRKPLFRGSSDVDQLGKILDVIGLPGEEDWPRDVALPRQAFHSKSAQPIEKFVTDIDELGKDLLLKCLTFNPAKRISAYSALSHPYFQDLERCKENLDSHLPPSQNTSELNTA
# Chain of CDK6 (P30281 whole entry partner): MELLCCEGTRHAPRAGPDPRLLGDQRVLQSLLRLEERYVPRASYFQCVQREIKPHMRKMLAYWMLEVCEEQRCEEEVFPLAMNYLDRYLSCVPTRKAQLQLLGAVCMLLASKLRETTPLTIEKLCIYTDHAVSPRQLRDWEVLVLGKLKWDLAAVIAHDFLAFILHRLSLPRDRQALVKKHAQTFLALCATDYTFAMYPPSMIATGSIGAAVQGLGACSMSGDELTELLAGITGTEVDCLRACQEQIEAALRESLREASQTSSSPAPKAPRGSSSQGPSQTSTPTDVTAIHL
# Chain of CDK4 (P11802 whole entry): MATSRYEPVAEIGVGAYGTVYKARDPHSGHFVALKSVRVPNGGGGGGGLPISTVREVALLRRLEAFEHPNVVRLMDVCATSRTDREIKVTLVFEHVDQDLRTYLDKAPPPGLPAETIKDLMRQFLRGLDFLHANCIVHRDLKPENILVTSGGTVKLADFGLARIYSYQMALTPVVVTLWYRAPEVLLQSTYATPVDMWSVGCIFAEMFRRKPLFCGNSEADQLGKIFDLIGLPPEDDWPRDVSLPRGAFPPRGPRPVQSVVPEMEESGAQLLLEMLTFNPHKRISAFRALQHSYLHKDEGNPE
# Chain of CDK4 (P30281 whole entry partner): as the sequence (P30281 whole entry partner) above
SMILES,IC50 [1] [nM],IC50 [2] [nM]
"CC(=O)c1nc(C2CC2)n2cc(-c3nc(Nc4ccc(N5CCNCC5)cn4)ncc3F)cc(F)c12 [Compound I-32, N-(5-(piperazin-1-yl)-pyridin-2-yl)-5-fluoro-4-(1-acetyl-3-cyclopropyl-8-fluoro-imidazolo[1,5-a]pyridin-6-yl)pyrimidin-2-amine]",20 to 100,≤ 20
"CCN1CCN(Cc2ccc(Nc3ncc(F)c(-c4ccc5nnc(C(C)=O)n5c4)n3)nc2)CC1 [Compound I-35, N-(5-(4-ethylpiperazine-1-methyl)-pyridin-2-yl)-5-fluoro-4-(3-acetyl-[1,2,4]triazolo[4,3-a]pyridin-6-yl)pyrimidin-2-amine]",20 to 100,20 to 100
"CC(=O)c1cn(C2CCCCCC2)c2ccc(-c3nc(Nc4ccc(CN5CCN(C6CCCC6)CC5)cn4)ncc3F)cc12 [Compound I-20, N-(5-(4-cyclopentylpiperazin-1-methyl)-pyridin-2-yl)-5-fluoro-4-(1-cycloheptyl-3-acetyl-1H-indol-5-yl)pyrimidin-2-amine]",≤ 20,≤ 20
"CCN1CCN(Cc2ccc(Nc3ncc(F)c(-c4ccc5c(c4)c(C(C)=O)cn5C4CCCC4)n3)nc2)CC1 [Compound I-4, N-(5-(4-ethylpiperazine-1-methyl)-pyridin-2-yl)-5-fluoro-4-(1-cyclopentyl-3-acetyl-1H-indol-5-yl)pyrimidin-2-amine]",20 to 100,≤ 20
"CCN1CCN(Cc2ccc(Nc3ncc(F)c(-c4ccc5nnc(C(F)(F)F)n5c4)n3)nc2)CC1 [Compound I-33, N-(5-(4-ethylpiperazine-1-methyl)-pyridin-2-yl)-5-fluoro-4-(3-trifluoromethyl-[1,2,4]triazolo[4,3-a]pyridin-6-yl)pyrimidin-2-amine]",≤ 20,≤ 20
"Cn1nc2nc(-c3nc(Nc4ccc(N5CCNCC5)cn4)ncc3F)ccc2c1C1CCCC1 [Compound I-12, N-(5-(piperazin-1-yl)-pyridin-2-yl)-5-fluoro-4-(2-methyl-3-cyclopentyl-2H-7-azaindazol-6-yl)pyrimidin-2-amine]",≤ 20,≤ 20

# Other lines, results leading:
IC50 [1] [nM],IC50 [2] [nM],SMILES
20 to 100,≤ 20,"CCN1CCN(Cc2ccc(Nc3ncc(F)c(-c4ncnc5c4c(C#N)cn5C)n3)nc2)CC1 [Compound I-42, N-(5-(4-ethylpiperazine-1-methyl)-pyridin-2-yl)-5-fluoro-4-(5-cyano-7-methyl-7H-pyrrolo[2,3-d]pyrimidin-4-yl)pyrimidin-2-amine]"
≤ 20,≤ 20,"CC(=O)c1cc2cc(-c3nc(Nc4ccc(N5CCNCC5)cn4)ncc3F)ccc2n1C(C)C [Compound I-23, N-(5-(piperazin-1-yl)-pyridin-2-yl)-5-fluoro-4-(1-isopropyl-2-acetyl-1H-indol-5-yl)pyrimidin-2-amine]"
20 to 100,20 to 100,"CCN1CCN(Cc2ccc(Nc3ncc(F)c(-c4ccc5c(c(C)nn5C5CCCC5)c4F)n3)nc2)CC1 [Compound I-45, N-(5-(4-ethylpiperazine-1-methyl)-pyridin-2-yl)-5-fluoro-4-(1-cyclopentyl-3-methyl-4-fluoro-1H-indazol-5-yl)pyrimidin-2-amine]"
≤ 20,≤ 20,"CCC(CC)n1c(C(C)C)nc2cnc(-c3nc(Nc4ccc(CN5CCN(C)CC5)cn4)ncc3F)nc21 [Compound I-39, N-(5-(4-methylpiperazin-1-methyl)-pyridin-2-yl)-5-fluoro-4-(9-(3-pentyl)-8-isopropyl-9H-purin-2-yl)pyrimidin-2-amine]"
≤ 20,≤ 20,"CC(=O)c1c2ccc(-c3nc(Nc4ccc(N5CCNCC5)cn4)ncc3F)nc2nn1C1CC1 [Compound I-29, N-(5-(piperazin-1-yl)-pyridin-2-yl)-5-fluoro-4-(2-cyclopropyl-3-acetyl-2H-7-azaindazol-6-yl)pyrimidin-2-amine]"

# Source: patent publication US10464927B2, “2,4-disubstituted pyrimidines as CDK inhibitors” (Shanghai Xunhe Pharmaceutical Technology Co. Ltd., priority 2016, dated 2019)
